# Measurements taken from patent US10131692B2, “Vasopressin-2 receptor agonists” (Ferring B.V., priority 2013, dated 2018).
# Legend:
# [1] = in vivo; cited from earlier work
# [2] = target: human V2 receptor (h V2R) (Homo sapiens (Human), UniProt P30518); assay: hV2 receptor agonist transcriptional reporter gene (luciferase) assay; assay type: cell-based; conditions: HEK-293 cells transiently transfected with hV2 receptor, dDAVP internal control
substance,measurement,setting,value
"[1-deamino, 8-D-arginine]-vasopressin [Compound 42]",route of clearance from the body,[1],cleared from the body primarily by the kidneys
[Val4]dDAVP [Compound 43],% Efficacy hV2-R,[2],89%
